US20060193796A1, “Method for refining ultraviolet absorbent, ultraviolet absorbent and cosmetic material” (priority 2003, published 2006)

Legend:
[1] = Odor evaluation for ultraviolet absorbers after a time has elapsed (storage for 3 weeks); assay type: physicochemical; details: 10 ranks: 1, no odor, 10, very intense odor; for Odor evaluation for ultraviolet absorber after a time has elapsed: In the dark: stored in the dark at 50° C. for 3 weeks; for Odor evaluation for ultraviolet absorber after a time has elapsed: In the light: stored in the light at 20° C., 1000 lux for 3 weeks
Procedure: Odor Evaluation for Ultraviolet Absorbers After a Time Has Elapsed 100 ml of each ultraviolet absorber was filled into two different 200-ml sample bottles, and one bottle was stored in the dark (at 50° C.) and the other in the light (at 20° C., 1000 lux) for 3 weeks. The intensity of overall odor and that of irritating odor were evaluated using one of 10 ranks: 1, no odor; . . .; 10, very intense odor and scored.

[2] = Hue evaluation for ultraviolet absorbers, Hazen color (APHA), Lovibond Nessleriser 2150; assay type: physicochemical
Procedure: Hue Evaluation for Ultraviolet Absorbers
Hazen color (APHA) was measured using Lovibond Nessleriser 2150.

Compound: CCCCC(CC)COC(=O)C=Cc1ccc(OC)cc1 (stereo not drawn) [Example 4, 2-ethylhexyl p-methoxycinnamate]
- Odor evaluation for ultraviolet absorber after a time has elapsed: In the dark [1]: 2
- Odor evaluation for ultraviolet absorber after a time has elapsed: In the light [1]: 1
- Evaluation for ultraviolet absorber: Hue [2]: 10 APHA

Compound: CCCCC(CC)COC(=O)C=Cc1ccc(OC)cc1 (stereo not drawn) [compound 9, 2-ethylhexyl p-methoxycinnamate]
- Odor evaluation for ultraviolet absorber after a time has elapsed: In the dark [1]: 2
- Odor evaluation for ultraviolet absorber after a time has elapsed: In the light [1]: 3
- Evaluation for ultraviolet absorber: Hue [2]: 10 APHA

Compound: CCCCC(CC)COC(=O)C=Cc1ccc(OC)cc1 (stereo not drawn) [compound 7, 2-ethylhexyl p-methoxycinnamate]
- Odor evaluation for ultraviolet absorber after a time has elapsed: In the dark [1]: 3
- Odor evaluation for ultraviolet absorber after a time has elapsed: In the light [1]: 2
- Evaluation for ultraviolet absorber: Hue [2]: 10 APHA

Compound: CCCCC(CC)COC(=O)C=Cc1ccc(OC)cc1 (stereo not drawn) [compound 1, 2-ethylhexyl p-methoxycinnamate]
- Odor evaluation for ultraviolet absorber after a time has elapsed: In the dark [1]: 5
- Odor evaluation for ultraviolet absorber after a time has elapsed: In the light [1]: 4
- Evaluation for ultraviolet absorber: Hue [2]: 40 APHA

Compound: CCCCC(CC)COC(=O)C=Cc1ccc(OC)cc1 (stereo not drawn) [compound 5, 2-ethylhexyl p-methoxycinnamate]
- Odor evaluation for ultraviolet absorber after a time has elapsed: In the dark [1]: 3
- Odor evaluation for ultraviolet absorber after a time has elapsed: In the light [1]: 3
- Evaluation for ultraviolet absorber: Hue [2]: 20 APHA

Compound: CCCCC(CC)COC(=O)C=Cc1ccc(OC)cc1 (stereo not drawn) [Example 3, 2-ethylhexyl p-methoxycinnamate]
- Odor evaluation for ultraviolet absorber after a time has elapsed: In the dark [1]: 2
- Odor evaluation for ultraviolet absorber after a time has elapsed: In the light [1]: 1
- Evaluation for ultraviolet absorber: Hue [2]: 10 APHA

Compound: CCCCC(CC)COC(=O)C=Cc1ccc(OC)cc1 (stereo not drawn) [compound 6, 2-ethylhexyl p-methoxycinnamate]
- Odor evaluation for ultraviolet absorber after a time has elapsed: In the dark [1]: 3
- Odor evaluation for ultraviolet absorber after a time has elapsed: In the light [1]: 2
- Evaluation for ultraviolet absorber: Hue [2]: 20 APHA

Compound: CCCCC(CC)COC(=O)C=Cc1ccc(OC)cc1 (stereo not drawn) [Example 2, 2-ethylhexyl p-methoxycinnamate]
- Odor evaluation for ultraviolet absorber after a time has elapsed: In the dark [1]: 2
- Odor evaluation for ultraviolet absorber after a time has elapsed: In the light [1]: 1
- Evaluation for ultraviolet absorber: Hue [2]: 10 APHA

Compound: CCCCC(CC)COC(=O)C=Cc1ccc(OC)cc1 (stereo not drawn) [compound 4, 2-ethylhexyl p-methoxycinnamate]
- Odor evaluation for ultraviolet absorber after a time has elapsed: In the dark [1]: 4
- Odor evaluation for ultraviolet absorber after a time has elapsed: In the light [1]: 3
- Evaluation for ultraviolet absorber: Hue [2]: 10 APHA

Compound: CCCCC(CC)COC(=O)C=Cc1ccc(OC)cc1 (stereo not drawn) [Example 1, 2-ethylhexyl p-methoxycinnamate]
- Odor evaluation for ultraviolet absorber after a time has elapsed: In the dark [1]: 2
- Odor evaluation for ultraviolet absorber after a time has elapsed: In the light [1]: 1
- Evaluation for ultraviolet absorber: Hue [2]: 10 APHA

Compound: CCCCC(CC)COC(=O)C=Cc1ccc(OC)cc1 (stereo not drawn) [compound 2, 2-ethylhexyl p-methoxycinnamate]
- Odor evaluation for ultraviolet absorber after a time has elapsed: In the dark [1]: 5
- Odor evaluation for ultraviolet absorber after a time has elapsed: In the light [1]: 4
- Evaluation for ultraviolet absorber: Hue [2]: 10 APHA

Compound: CCCCC(CC)COC(=O)C=Cc1ccc(OC)cc1 (stereo not drawn) [compound 8, 2-ethylhexyl p-methoxycinnamate]
- Odor evaluation for ultraviolet absorber after a time has elapsed: In the dark [1]: 3
- Odor evaluation for ultraviolet absorber after a time has elapsed: In the light [1]: 2
- Evaluation for ultraviolet absorber: Hue [2]: 20 APHA

Compound: CCCCC(CC)COC(=O)C=Cc1ccc(OC)cc1 (stereo not drawn) [compound 3, 2-ethylhexyl p-methoxycinnamate]
- Odor evaluation for ultraviolet absorber after a time has elapsed: In the dark [1]: 4
- Odor evaluation for ultraviolet absorber after a time has elapsed: In the light [1]: 4
- Evaluation for ultraviolet absorber: Hue [2]: 40 APHA
